The results in this text go back to patent US7183276B2, “Azole compounds” (Takeda Pharmaceutical Company Limited, priority 2002, dated 2007).

The structures appear in SMILES notation.

Usually melting point stands for the temperature, or range, at which the solid turns liquid. As to `O=C(CCc1oc(-n2cnc3ccccc32)nc1-c1ccc(Cl)cc1)NCc1ccc(-c2csnn2)cc1` [Example 150, 3-[2-(1H-benzimidazol-1-yl)-4-(4-chlorophenyl)-5-oxazolyl]-N-[4-(1,2,3-thiadiazol-4-yl)benzyl]propionamide], the melting point is 173 to 174 °C.

On to `NS(=O)(=O)c1ccc(CNC(=O)CCc2oc(-n3cnc4ccccc43)nc2-c2ccc(Cl)cc2)cc1` [Example 151, N-[4-(aminosulfonyl)benzyl]-3-[2-(1H-benzimidazol-1-yl)-4-(4-chlorophenyl)-5-oxazolyl]propionamide], for which the melting point fell in the range of 255 to 256 °C. Compound `O=C(CCc1oc(-n2cnc3ccccc32)nc1-c1ccc(Cl)cc1)NCc1ccc(Cl)cc1` [Example 152, 3-[2-(1H-benzimidazol-1-yl)-4-(4-chlorophenyl)-5-oxazolyl]-N-(4-chlorobenzyl)propionamide] gave a melting point of 190 to 191 °C. In turn, `O=C(CCc1oc(-n2cnc3ccccc32)nc1-c1ccc(Cl)cc1)NCc1ccc(-c2ccccc2)cc1` [Example 153, 3-[2-(1H-benzimidazol-1-yl)-4-(4-chlorophenyl)-5-oxazolyl]-N-(4-phenylbenzyl)propionamide] gave a melting point of 214 to 216 °C. In the case of `O=C(CCc1oc(-n2cnc3ccccc32)nc1-c1ccc(Cl)cc1)NCc1ccccn1` [Example 154, 3-[2-(1H-benzimidazol-1-yl)-4-(4-chlorophenyl)-5-oxazolyl]-N-(2-pyridinylmethyl)propionamide] it was 157 to 158 °C; in that of `O=C(CCc1oc(-n2cnc3ccccc32)nc1-c1ccc(Cl)cc1)NCc1ccncc1` [Example 155, 3-[2-(1H-benzimidazol-1-yl)-4-(4-chlorophenyl)-5-oxazolyl]-N-(4-pyridinylmethyl)propionamide], 214 to 216 °C; in that of `O=C(CCc1oc(-n2cnc3ccccc32)nc1-c1ccc(Cl)cc1)NCc1c(F)cccc1F` [Example 156, 3-[2-(1H-benzimidazol-1-yl)-4-(4-chlorophenyl)-5-oxazolyl]-N-(2,6-difluorobenzyl)propionamide], 225 to 226 °C. `O=C(CCc1oc(-n2cnc3ccccc32)nc1-c1ccc(Cl)cc1)NCc1ccccc1C(F)(F)F` [Example 157, 3-[2-(1H-benzimidazol-1-yl)-4-(4-chlorophenyl)-5-oxazolyl]-N-[2-(trifluoromethyl)benzyl]propionamide] registered a melting point of 208 to 209 °C. The same measure for `O=C(CCc1oc(-n2cnc3ccccc32)nc1-c1ccc(Cl)cc1)NCc1cc(F)ccc1F` [Example 158, 3-[2-(1H-benzimidazol-1-yl)-4-(4-chlorophenyl)-5-oxazolyl]-N-(2,5-difluorobenzyl)propionamide]: 197 to 198 °C; for `O=C(CCc1oc(-n2cnc3ccccc32)nc1-c1ccc(Cl)cc1)NCc1ccc(Cl)cc1F` [Example 159, 3-[2-(1H-benzimidazol-1-yl)-4-(4-chlorophenyl)-5-oxazolyl]-N-(4-chloro-2-fluorobenzyl)propionamide]: 189 to 191 °C. The same measure for `O=C(CCc1oc(-n2cnc3ccccc32)nc1-c1ccc(Cl)cc1)NCc1ccc(F)cc1F` [Example 160, 3-[2-(1H-benzimidazol-1-yl)-4-(4-chlorophenyl)-5-oxazolyl]-N-(2,4-difluorobenzyl)propionamide]: 190 to 191 °C; for `COc1cc(OC)c(CNC(=O)CCc2oc(-n3cnc4ccccc43)nc2-c2ccc(Cl)cc2)c(OC)c1` [Example 161, 3-[2-(1H-benzimidazol-1-yl)-4-(4-chlorophenyl)-5-oxazolyl]-N-(2,4,6-trimethoxybenzyl)propionamide]: 206 to 208 °C.

Turning to `O=C(CCc1oc(-n2cnc3ccccc32)nc1-c1ccc(Cl)cc1)NCCOc1ccccc1` [Example 162, 3-[2-(1H-benzimidazol-1-yl)-4-(4-chlorophenyl)-5-oxazolyl]-N-(2-phenoxyethyl)propionamide], the melting point was in the range of 156 to 157 °C. In the case of `O=C(CCc1oc(-n2cnc3ccccc32)nc1-c1ccc(Cl)cc1)NCc1cc(F)cc(C(F)(F)F)c1` [Example 163, 3-[2-(1H-benzimidazol-1-yl)-4-(4-chlorophenyl)-5-oxazolyl]-N-[3-fluoro-5-(trifluoromethyl)benzyl]propionamide] it was 198 to 200 °C.

Regarding `O=C(CCc1oc(-n2cnc3ccccc32)nc1-c1ccc(Cl)cc1)NCc1cc(F)cc(F)c1` [Example 164, 3-[2-(1H-benzimidazol-1-yl)-4-(4-chlorophenyl)-5-oxazolyl]-N-(3,5-difluorobenzyl)propionamide], the melting point lay within 155 to 156 °C. The same measure for `NS(=O)(=O)c1ccc(CNC(=O)CCc2oc(-c3ccccc3)nc2-c2ccc(Cl)cc2)cc1` [Example 165, N-[4-(aminosulfonyl)benzyl]-3-[4-(4-chlorophenyl)-2-phenyl-5-oxazolyl]propionamide]: 225 to 227 °C; for `Cc1ccc(CNC(=O)CCc2oc(-c3ccccc3)nc2-c2ccc(Cl)cc2)cc1` [Example 166, 3-[4-(4-chlorophenyl)-2-phenyl-5-oxazolyl]-N-(4-methylbenzyl)propionamide]: 193 to 194 °C; for `O=C(CCc1oc(-n2cnc3ccccc32)nc1-c1ccc(Cl)cc1)NCc1cc(Br)ccc1F` [Example 167, 3-[2-(1H-benzimidazol-1-yl)-4-(4-chlorophenyl)-5-oxazolyl]-N-(5-bromo-2-fluorobenzyl)propionamide]: 183 to 184 °C. The same measure for `O=C(CCc1oc(-n2cnc3ccccc32)nc1-c1ccc(Cl)cc1)NCc1ccc(F)cc1Cl` [Example 168, 3-[2-(1H-benzimidazol-1-yl)-4-(4-chlorophenyl)-5-oxazolyl]-N-(2-chloro-4-fluorobenzyl)propionamide]: 196 to 198 °C. In the case of `COc1cc(CNC(=O)CCc2oc(-n3cnc4ccccc43)nc2-c2ccc(Cl)cc2)cc(OC)c1OC` [Example 169, 3-[2-(1H-benzimidazol-1-yl)-4-(4-chlorophenyl)-5-oxazolyl]-N-(3,4,5-trimethoxybenzyl)propionamide] it was 169 to 170 °C. `O=C(CCc1oc(-n2cnc3ccccc32)nc1-c1ccc(Cl)cc1)NCc1ccc(F)c(Br)c1` [Example 170, 3-[2-(1H-benzimidazol-1-yl)-4-(4-chlorophenyl)-5-oxazolyl]-N-(3-bromo-4-fluorobenzyl)propionamide]: the melting point fell in the range of 206 to 207 °C. The compound `O=C(CCc1oc(-n2cnc3ccccc32)nc1-c1ccc(Cl)cc1)NCc1cccc(Br)c1` [Example 171, 3-[2-(1H-benzimidazol-1-yl)-4-(4-chlorophenyl)-5-oxazolyl]-N-(3-bromobenzyl)propionamide] displayed a melting point of 181 to 183 °C. The same measure for `O=C(CCc1oc(-n2cnc3ccccc32)nc1-c1ccc(Cl)cc1)NCc1ccc(Br)cc1` [Example 172, 3-[2-(1H-benzimidazol-1-yl)-4-(4-chlorophenyl)-5-oxazolyl]-N-(4-bromobenzyl)propionamide]: 205 to 206 °C; for `O=C(CCc1oc(-n2cnc3ccccc32)nc1-c1ccc(Cl)cc1)NCc1ccc(F)c(Cl)c1` [Example 173, 3-[2-(1H-benzimidazol-1-yl)-4-(4-chlorophenyl)-5-oxazolyl]-N-(3-chloro-4-fluorobenzyl)propionamide]: 188 to 189 °C; for `O=C(CCc1oc(-n2cnc3ccccc32)nc1-c1ccc(Cl)cc1)NCc1cc(Cl)ccc1Cl` [Example 174, 3-[2-(1H-benzimidazol-1-yl)-4-(4-chlorophenyl)-5-oxazolyl]-N-(2,5-dichlorobenzyl)propionamide]: 205 to 207 °C. In the case of `Cc1ccc(CNC(=O)CCc2oc(-n3cnc4ccccc43)nc2-c2ccc(Cl)cc2)c(C)c1` [Example 175, 3-[2-(1H-benzimidazol-1-yl)-4-(4-chlorophenyl)-5-oxazolyl]-N-(2,4-dimethylbenzyl)propionamide] it was 218 to 219 °C. `Cc1ccc(Cl)cc1CNC(=O)CCc1oc(-n2cnc3ccccc32)nc1-c1ccc(Cl)cc1` [Example 176, 3-[2-(1H-benzimidazol-1-yl)-4-(4-chlorophenyl)-5-oxazolyl]-N-(5-chloro-2-methylbenzyl)propionamide] returned a melting point of 217 to 219 °C. In the case of `O=C(CCc1oc(-n2cnc3ccccc32)nc1-c1ccc(Cl)cc1)NCc1cccc(-c2ccccc2)c1` [Example 177, 3-[2-(1H-benzimidazol-1-yl)-4-(4-chlorophenyl)-5-oxazolyl]-N-(3-phenylbenzyl)propionamide] it was 201 to 202 °C. The same measure for `Cc1cc(Cl)ccc1CNC(=O)CCc1oc(-n2cnc3ccccc32)nc1-c1ccc(Cl)cc1` [Example 178, 3-[2-(1H-benzimidazol-1-yl)-4-(4-chlorophenyl)-5-oxazolyl]-N-(4-chloro-2-methylbenzyl)propionamide]: 200 to 201 °C. Compound `COc1ccc(OC)c(CNC(=O)CCc2oc(-n3cnc4ccccc43)nc2-c2ccc(Cl)cc2)c1` [Example 179, 3-[2-(1H-benzimidazol-1-yl)-4-(4-chlorophenyl)-5-oxazolyl]-N-(2,5-dimethoxybenzyl)propionamide] gave a melting point of 193 to 194 °C. Take `COc1cc(CNC(=O)CCc2oc(-n3cnc4ccccc43)nc2-c2ccc(Cl)cc2)cc(OC)c1` [Example 180, 3-[2-(1H-benzimidazol-1-yl)-4-(4-chlorophenyl)-5-oxazolyl]-N-(3,5-dimethoxybenzyl)propionamide]: the melting point was in the range of 198 to 200 °C. In the case of `Cc1ccc(C)c(CNC(=O)CCc2oc(-n3cnc4ccccc43)nc2-c2ccc(Cl)cc2)c1` [Example 181, 3-[2-(1H-benzimidazol-1-yl)-4-(4-chlorophenyl)-5-oxazolyl]-N-(2,5-dimethylbenzyl)propionamide] it was 218 to 219 °C; in that of `O=C(CCc1oc(-n2cnc3ccccc32)nc1-c1ccc(Cl)cc1)N1CCC(O)CC1` [Example 192, 1-{3-[2-(1H-benzimidazol-1-yl)-4-(4-chlorophenyl)-5-oxazolyl]propanoyl}-4-piperidinol], 182 to 183 °C.
